The subject of data set [1] is KB. In words: Cytotoxicity against human KB cells assessed as inhibition of cell growth at 6.25 to 100 uM incubated for 72 hrs by MTT assay. The following applies: dose 6.25-100 µM. In kind it is functional. Also on record: scale not given: the % may be the effect or the level left. For orientation: Tetrazolium assays rely on reduction of a dye to a coloured formazan, in cell work by metabolically active cells.

For a further data set, the system named is HL-60. The data set is described as follows: Cytotoxicity against human HL-60 cells assessed as inhibition of cell growth at 6.25 to 100 uM incubated for 72 hrs by MTT assay. In kind it is functional. Set-up: scale not given: the % may be the effect or the level left. The following applies: dose 6.25-100 µM.
Data set [2] deals with KB. In words: Cytotoxicity against human KB cells assessed as reduction in cell viability. In kind it is functional, cell-based.
Data set [3] in a line: Cytotoxicity against mouse DLA cell assessed as reduction in cell viability incubated for 3 hrs by tryphan blue dye based assay. Type of data set: toxicity. The following applies: DLA cells.
A short description of data set [4]: Cytotoxicity against mouse EAC cell assessed as reduction in cell viability incubated for 3 hrs by tryphan blue dye based assay. Type of data set: toxicity. The following applies: EAC (Ehrlich) cells.
The next data set deals with DU-145. The data set is described as follows: Cytotoxicity against human DU-145 cells assessed as inhibition of cell growth incubated for 72 hrs by XTT assay. In kind it is functional, cell-based. The following applies: DU-145, 72 h.
In data set [5] the test system is KB. The data set is described as follows: Cytotoxicity against human KB cells assessed as reduction in cell viability incubated for 3 days. In kind it is functional, cell-based. Particulars: 72 h.
Data set [6] deals with Pseudomonas aeruginosa. In words: Antibacterial activity against Pseudomonas aeruginosa assessed as inhibition of bacterial growth incubated for 18 hrs by disc diffusion method. In kind it is functional.
The next data set deals with Klebsiella pneumoniae. In words: Antibacterial activity against Klebsiella pneumoniae assessed as inhibition of bacterial growth incubated for 18 hrs by disc diffusion method. Type of data set: functional. (In general: Agar diffusion results depend on both activity and mobility in agar.)
The test system of data set [7] is Trichophyton mentagrophytes. The data set is described as follows: Antifungal activity against Trichophyton mentagrophytes assessed as inhibition of fungal growth incubated for 48 hrs by serial plate dilution method. Type of data set: functional.
Data set [8] concerns Microsporum audouinii. The data set is described as follows: Antifungal activity against Microsporum audouinii assessed as inhibition of fungal growth incubated for 48 hrs by serial plate dilution method. In kind it is functional.
Data set [9] concerns Pseudomonas aeruginosa. In words: Antibacterial activity against Pseudomonas aeruginosa MUMC 266 assessed as inhibition of bacterial growth incubated for 18 hrs by disk diffusion method. Type of data set: functional.
In data set [10] the test system is Escherichia coli. In words: Antibacterial activity against Escherichia coli MUMC 106 assessed as inhibition of bacterial growth incubated for 18 hrs by disk diffusion method. In kind it is functional.
The subject of data set [11] is Candida albicans. In words: Antifungal activity against Candida albicans MUMC 29 assessed as inhibition of fungal growth incubated for 48 hrs by disk diffusion method. In kind it is functional.
For data set [12], the system named is Candida albicans. In words: Antifungal activity against Candida albicans MUMC 29 assessed as increase in inhibition of fungal growth incubated for 48 hrs by disk diffusion method relative to griseofulvin. Also on record: scale not given: the % may be the effect or the level left. In kind it is functional.
Data set [13] relates to Pseudomonas aeruginosa. The data set is described as follows: Antibacterial activity against Pseudomonas aeruginosa MUMC 266 assessed as increase in inhibition of bacterial growth incubated for 18 hrs by disk diffusion method relative to ciprofloxacin. In kind it is functional. Set-up: scale not given: the % may be the effect or the level left.
The test system of data set [14] is Escherichia coli. In words: Antibacterial activity against Escherichia coli MUMC 106 assessed as increase in inhibition of bacterial growth incubated for 18 hrs by disk diffusion method relative to ciprofloxacin. In kind it is functional. Set-up: scale not given: the % may be the effect or the level left.
A short description of data set [15]: Cytotoxicity against mouse DLA cell assessed as reduction in cell viability. Type of data set: toxicity, cell-based. The following applies: DLA cells.
Data set [16] in a line: Cytotoxicity against mouse EAC cell assessed as reduction in cell viability. In kind it is toxicity, cell-based. Particulars: EAC (Ehrlich) cells.
Data set [17] has as its system Trichophyton mentagrophytes. The data set is described as follows: Antimicrobial activity against Trichophyton mentagrophytes MUMC 665 assessed as inhibition of microbial growth by disk diffusion method. Type of data set: functional.
For data set [18], the system named is Microsporum audouinii. The data set is described as follows: Antimicrobial activity against Microsporum audouinii MUMC 545 assessed as inhibition of microbial growth by disk diffusion method. In kind it is functional.

Molecules are shown by their SMILES. ≈ marks a conversion by molar mass, not a printed value. Where a SMILES comes first, the peptide text is derived from it. [ ]: non-standard residue; d: D form. Met(O) = CS(=O)CC[C@H](N)C(=O)O; Dab = NCC[C@H](N)C(=O)O

The IC50 is the concentration needed to halve the response being measured. In general, CC50 refers to the concentration that lowers cell viability or growth by half. The MIC is the smallest concentration in the dilution series that meets the test's criterion for growth inhibition.

Regarding `CC(C)C[C@@H]1NC(=O)[C@H](Cc2ccc(O)cc2)NC(=O)[C@@H]2CCCN2C(=O)[C@@H]2CCCN2C(=O)[C@H](C(C)C)NC(=O)CNC(=O)[C@@H]2CCCN2C1=O` (cyclo(GVPPYLP)), the Activity in the data set with KB [1] and in the data set on HL-60 was less than 30% in each case.
For the compound `CC(C)C[C@@H]1NC(=O)CNC(=O)[C@@H]2CCCN2C(=O)[C@H]([C@@H](C)O)NC(=O)[C@H](C(C)C)NC(=O)[C@H](C)NC(=O)[C@H](CC(N)=O)NC1=O`, in the data set with KB [2], the IC50 was 0.97 µM.
`O=c1[nH]cc(F)c(=O)[nH]1` [FLUOROURACIL]: the CC50 at 3 h in [3] and in [4] was 37.4 µM in each case.
With `CC(C)C[C@@H]1NC(=O)CNC(=O)[C@@H]2CCCN2C(=O)[C@H]([C@@H](C)O)NC(=O)[C@H](C(C)C)NC(=O)[C@H](C)NC(=O)[C@H](CO)NC1=O`, the IC50 with DU-145 was 54.9 µM.
Consider `CC[C@H](C)[C@@H]1NC(=O)[C@@H]2CCCN2C(=O)[C@H](CC(C)C)NC(=O)[C@H](CCSC)NC(=O)CNC(=O)[C@H]([C@@H](C)O)NC(=O)[C@H](CCC(N)=O)NC(=O)[C@@H]2CCCN2C1=O` (cyclo(GMLPIPQT)), for which the IC50 with KB [2] came out at 0.6 µM.
Take `CC[C@H](C)[C@@H]1NC(=O)[C@@H]2CCCN2C(=O)[C@H](C(C)C)NC(=O)[C@H](C)NC(=O)CNC(=O)[C@@H]2CCCN2C(=O)[C@H](C)NC(=O)[C@H](Cc2ccc(O)cc2)NC1=O` (cyclo(APGAVPIY)): the IC50 with KB [2] and in the data set with KB [5] was 0.52 µM each time. In addition, the half-maximal cytotoxic concentration (CC50) at 3 h in data set [3] was determined as 6.72 µM; in data set [4] it was 11.9 µM.
As for `CC[C@H](C)[C@@H]1NC(=O)[C@@H]2CCCN2C(=O)[C@H](CC(C)C)NC(=O)[C@H](CC[S+](C)[O-])NC(=O)CNC(=O)[C@H]([C@@H](C)O)NC(=O)[C@H](CCC(N)=O)NC(=O)[C@@H]2CCCN2C1=O` (stereo partly drawn) (cyclo(G[Met(O)]LPIPQT)), the IC50 in the data set on KB [2] came to 45 µM.
Take `CC(C)C[C@@H]1NC(=O)CNC(=O)[C@@H]2CCCN2C(=O)[C@H](CC(N)=O)NC(=O)[C@H](C)NC(=O)[C@H](Cc2ccc(O)cc2)NC(=O)[C@@H]2CCCN2C1=O` [CYCLOMONTANIN D] (cyclo(ANPGLPY)): the MIC (with Pseudomonas aeruginosa [6]; with Klebsiella pneumoniae; in data set [7]; in the data set with Microsporum audouinii [8]) was 6 µg/mL (≈ 8.42 µM) each time.
For `CC[C@H](C)[C@@H]1NC(=O)CNC(=O)[C@H](CCSC)NC(=O)CNC(=O)[C@@H]2CCCN2C(=O)[C@H](CC(C)C)NC(=O)[C@H](Cc2ccc(O)cc2)NC1=O` (cyclo(GIYLPGM)), the IC50 with KB [2] and in the data set with KB [5] was 16.5 µM throughout.
Take `CC[C@H](C)[C@@H]1NC(=O)[C@@H]2CCCN2C(=O)CNC(=O)[C@H](C)NC(=O)[C@H](Cc2ccc(O)cc2)NC1=O` (cyclo(AGPIY)): the Activity with KB [1] and in the data set on HL-60 was less than 30% in each case.
Turning to `COc1cccc2c1C(=O)c1c(O)c3c(c(O)c1C2=O)C[C@@](O)(C(=O)CO)C[C@@H]3O[C@H]1C[C@H](N)[C@H](O)[C@H](C)O1` [DOXORUBICIN], the IC50 with KB [2] came out at 0.02 µM; in the data set on DU-145, 1.1 µM.
Take `CC(C)C[C@@H]1NC(=O)CNC(=O)[C@H](Cc2ccccc2)NC(=O)[C@H](Cc2ccc(O)cc2)NC(=O)[C@@H]2CCCN2C(=O)CNC1=O` [Cherimolacyclopeptide E] (cyclo(FGLGPY)): the IC50 in the data set on KB [5] was found to be 0.017 µM. Also, the MIC in the data set with Pseudomonas aeruginosa [9] amounted to 6 µg/mL (≈ 9.45 µM); in the data set with Escherichia coli [10] it was 12.5 µg/mL (≈ 19.7 µM); in the data set on Candida albicans [11], 6 µg/mL (≈ 9.45 µM). Also, the figures for the CC50 at 3 h in [3] and in [4] were 2.76 µM and 4.96 µM, respectively. The values for the Activity in the data set on Candida albicans [12], in the data set with Pseudomonas aeruginosa [13] and with Escherichia coli [14] were 25%, 12% and 12%, respectively.
On to `CC[C@H](C)[C@@H]1NC(=O)CNC(=O)[C@H](CCSC)NC(=O)CNC(=O)[C@@H]2CCCN2C(=O)[C@H](CCSC)NC(=O)[C@@H]2CCCN2C(=O)[C@H](CC(C)C)NC(=O)[C@H](Cc2ccc(O)cc2)NC1=O` (cyclo(GIYLPMPGM)), for which, in the data set with KB [5], the IC50 stood at 0.06 µM.
`CC(C)C[C@@H]1NC(=O)[C@H](Cc2c[nH]c3ccccc23)NC(=O)[C@H](C)NC(=O)[C@H](CC(N)=O)NC(=O)[C@@H]2CCCN2C(=O)[C@H]([C@@H](C)O)NC(=O)CNC1=O` (cyclo(AWLGTPN)): the CC50 is 11.6 µM in data set [15] and 14.1 µM in [16]. Besides, the MIC (in data set [17]; with Microsporum audouinii [18]) was 6 µg/mL each time.
In the case of `CC[C@H](C)[C@@H]1NC(=O)[C@H](C)NC(=O)[C@H](C(C)C)NC(=O)[C@H]([C@@H](C)O)NC(=O)CNC(=O)[C@H](Cc2ccc(O)cc2)NC(=O)[C@H](CO)NC(=O)[C@H](CCN)NC(=O)[C@@H]2CCCN2C1=O` (cyclo(AIP[Dab]SYGTV)), the IC50 with DU-145 is 27.3 µM.
Consider `CC(C)C[C@@H]1NC(=O)[C@H](C(C)C)NC(=O)[C@H](C(C)C)NC(=O)CNC(=O)[C@H](C)NC(=O)CNC(=O)[C@@H]2CCCN2C1=O` (cyclo(AGVVLPG)), for which, in the data set on KB [2], the IC50 turned out to be 0.73 µM.

The values above are taken from ChEMBL document CHEMBL5226294, “Natural bioeffective cyclooligopeptides from plant seeds of Annona genus” (Eur J Med Chem, 2021).
